Assay results taken from patent US20240196897A1, “METHOD FOR CONTROLLING DISEASE-TRANSMITTING INSECTS USING CONDENSED HETEROCYCLIC COMPOUND” (SUMITOMO CHEMICAL COMPANY, LIMITED, priority 2021, published 2024).

Columns and labels:
[1] = test system: German cockroaches (Blattella germanica); assay: Aerosol spray test on adult German cockroaches, moribund and mortal rates; type: in vivo; settings: aerosol per Formulation Example 2 (0.1 part compound); spray time 1.35 seconds, spray amount about 800 mg, from height 50 cm; ten adults; one day after spraying
Experimental: (§1) The internal pressure of the container at 20° C. of the aerosols thus fabricated was 0.5 MPa, the spray amount was 3 g/5 seconds, and the representative particle size (XR value) was 14 to 15 μm.
In a plastic container (diameter: 12.4 cm, height: 10.2 cm), ten adult German cockroaches (Blattella germanica) (five males and five females each) were released, and the plastic container was placed in the center of the bottom of a cylindrical chamber of 17.2 cm in diameter. From the height of 50 cm, the aerosol containing each compound listed in Table 2 which was fabricated according to the method mentioned in Formulation Example 2 was sprayed with a spray time of 1.35 seconds and a spray amount of about 800 mg. After a lapse of one day from spraying, the number of dead and moribund individuals was examined, and moribund and mortal rates (%) were determined by the equation 1 below. Dead individuals are completely immobile individuals, and moribund individuals are individuals who cannot get up when turned on their backs.
Moribund and mortal rates (%)={(number of dead individuals+number of moribund individuals)/number of tested individuals}×100 (Equation 1)

[2] = test system: Argentine worker ants (Linepithema humile); assay: Aerosol spray test on adult Argentine worker ants, moribund and mortal rates; type: in vivo; settings: aerosol per Formulation Example 2 (0.1 part compound), from height 60 cm, ten adult workers, seven days after spraying
Experimental: as §1
In a plastic container (diameter: 10 cm, height: 4.5 cm) lined with a filter paper (diameter: 8.2 cm), ten adult Argentine worker ants (Linepithema humile) were released, and the plastic container was placed in the center of the bottom of a cylindrical chamber of 17.2 cm in diameter. From the height of 60 cm, the aerosol containing each compound listed in Table 2 which was fabricated according to the method mentioned in Formulation Example 2 was sprayed with a spray time of 0.34 second or 0.68 second and a spray amount of about 400 mg or 200 mg. After a lapse of seven days from spraying, the number of dead and moribund individuals was examined, and moribund and mortal rates (%) were determined by the equation 2 below. Dead individuals are completely immobile individuals, and moribund individuals are individuals who cannot get up when turned on their backs.
Moribund and mortal rates (%)={(number of dead individuals+number of moribund individuals)/number of tested individuals}×100 (Equation 2)

For `CCS(=O)(=O)c1cc(C(F)(F)F)cnc1-c1nc2cc([S+]([O-])C(F)(F)F)ccc2o1` (stereo not drawn) [Comparative compound 1], which “Moribund and mortal rates (%) after one day” value [1] is on record?
The value was 30%.

What about the “Moribund and mortal rates (%) after seven days” value ([2]; spray amount 200 mg) of the same compound?
Its value is 10%.

And the “Moribund and mortal rates (%) after seven days” value ([2]; spray amount 400 mg)?
The value was 100%.

Which results are given for `CCS(=O)(=O)c1cc(C)cnc1-c1nc2cc([S+]([O-])C(F)(F)F)ccc2o1` (stereo not drawn) [Comparative compound 3]?
Moribund and mortal rates (%) after one day [1]: 30%; Moribund and mortal rates (%) after seven days ([2]; spray amount 200 mg): 3%; Moribund and mortal rates (%) after seven days ([2]; spray amount 400 mg): 100%

What does the source list for `CCS(=O)(=O)c1cc(C(F)(F)F)cnc1-c1nc2cc(S(=O)(=O)C(F)(F)F)ccc2o1` [Comparative compound 2]?
Moribund and mortal rates (%) after one day [1]: 30%; Moribund and mortal rates (%) after seven days ([2]; spray amount 200 mg): 13%; Moribund and mortal rates (%) after seven days ([2]; spray amount 400 mg): 100%

Which “Moribund and mortal rates (%) after one day” value [1] does the source give for `CCS(=O)(=O)c1cc(C2CC2)cnc1-c1nc2cc(S(=O)(=O)C(F)(F)F)ccc2o1` [Present compound B] here?
The value was 100%.

What about the “Moribund and mortal rates (%) after seven days” value ([2]; spray amount 200 mg) of the same compound?
The value was 100%.

And the “Moribund and mortal rates (%) after seven days” value ([2]; spray amount 400 mg)?
The value was 100%.

How did the “Moribund and mortal rates (%) after one day” value [1] turn out when `CCS(=O)(=O)c1cc(C)cnc1-c1nc2cc(S(=O)(=O)C(F)(F)F)ccc2o1` [Comparative compound 4] was run?
Its value is 15%.

What about the “Moribund and mortal rates (%) after seven days” value ([2]; spray amount 200 mg) of the same compound?
The value was 10%.

What about the “Moribund and mortal rates (%) after seven days” value ([2]; spray amount 400 mg) of the same compound?
The value was 100%.

How did the “Moribund and mortal rates (%) after one day” value [1] turn out when `CCS(=O)(=O)c1cc(C2CC2)cnc1-c1nc2cc([S+]([O-])C(F)(F)F)ccc2o1` (stereo not drawn) [Present compound A] was run?
The value was 100%.

What about the “Moribund and mortal rates (%) after seven days” value ([2]; spray amount 200 mg) of the same compound?
The value was 100%.

And the “Moribund and mortal rates (%) after seven days” value ([2]; spray amount 400 mg)?
The value was 100%.
